According to patent US9115169B2, “Method of treating tumors” (Lytix Biopharma AS, priority 2000, dated 2015):
In brackets after ≈: the same amount, converted by molar mass. Where two headings read alike, the source gives them in different places. Where a SMILES comes first, the peptide text is derived from it. [ ]: non-standard residue; d: D form. The star is where a group is joined. Trp(2-Pmc) = Cc1c(C)c(S(=O)(=O)c2[nH]c3ccccc3c2C[C@H](N)C(=O)O)c(C)c2c1OC(C)(C)CC2; Bip = N[C@@H](Cc1ccc(-c2ccccc2)cc1)C(=O)O; OBn = c1ccc(CO*)cc1

Tests used:
[1] = system: Escherichia coli ATCC 25922
[2] = system: Staphylococcus aureus ATCC 25923

SMILES | MIC E. coli ([1]; ATCC 25922) [µg/mL] | MIC E. coli ([1]; Table 8, second column) | MIC S. aureus ([2]; ATCC 25923) [µg/mL] | MIC S. aureus ([2]; Table 8, second column)
C[C@H](N)C(=O)N[C@@H](C)C(=O)N[C@@H](Cc1ccc(-c2ccccc2)cc1)C(=O)N[C@@H](Cc1ccc(-c2ccccc2)cc1)C(=O)N[C@@H](CCCNC(=N)N)C(=O)N[C@@H](CCCNC(=N)N)C(N)=O [AABBRR-NH2] (H-AA[Bip][Bip]RR-NH2; N-terminus assumed) | 20 to 35 | 21.8-38.1 μM/ml | 5 (≈ 5.45 µM) | 5.4 μM/ml
C[C@H](N)C(=O)N[C@@H](C)C(=O)N[C@@H](Cc1c[nH]c2ccccc12)C(=O)N[C@@H](Cc1ccc(-c2ccccc2)cc1)C(=O)N[C@@H](CCCNC(=N)N)C(=O)N[C@@H](CCCNC(=N)N)C(N)=O [AAWBRR-NH2] (H-AAW[Bip]RR-NH2; N-terminus assumed) | 150 (≈ 170 µM) | 170.2 μM/ml | 20 to 35 | 22.7-39.7 μM/ml
Cc1c(C)c(S(=O)(=O)c2[nH]c3ccccc3c2C[C@H](NC(=O)[C@H](C)NC(=O)[C@H](C)N)C(=O)N[C@@H](CCCNC(=N)N)C(=O)N[C@@H](Cc2ccc(-c3ccccc3)cc2)C(=O)N[C@@H](CCCNC(=N)N)C(N)=O)c(C)c2c1OC(C)(C)CC2 [AAWRBR-NH2 Pmc+] (H-AA[Trp(2-Pmc)]R[Bip]R-NH2; N-terminus assumed) | – | 13.1 μM/ml | – | 2.2 μM/ml
C[C@H](N)C(=O)N[C@@H](C)C(=O)N[C@@H](Cc1c[nH]c2ccccc12)C(=O)N[C@@H](CCCNC(=N)N)C(=O)N[C@@H](Cc1ccc(-c2ccccc2)cc1)C(=O)N[C@@H](CCCNC(=N)N)C(N)=O [AAWRBR-NH2] (H-AAWR[Bip]R-NH2; N-terminus assumed) | 150 to 300 | – | 35 (≈ 39.7 µM) | 39.7 μM/ml
C[C@H](N)C(=O)N[C@@H](C)C(=O)N[C@@H](Cc1c[nH]c2ccccc12)C(=O)N[C@@H](Cc1c[nH]c2ccccc12)C(=O)N[C@@H](CCCNC(=N)N)C(=O)N[C@@H](CCCNC(=N)N)C(N)=O [AAWWRR-NH2] (H-AAWWRR-NH2; N-terminus assumed) | >200 | 237.0 μM/ml | >200 | 237.0 μM/ml
Cc1c(C)c(S(=O)(=O)c2[nH]c3ccccc3c2C[C@H](NC(=O)[C@H](C)N)C(=O)N[C@@H](CCCNC(=N)N)C(=O)N[C@@H](Cc2ccc(-c3ccccc3)cc2)C(=O)N[C@@H](CCCNC(=N)N)C(=O)N[C@@H](C)C(N)=O)c(C)c2c1OC(C)(C)CC2 [AWRBRA-NH2 Pmc+] (H-A[Trp(2-Pmc)]R[Bip]RA-NH2; N-terminus assumed) | – | 8.7 μM/ml | – | 2.2 μM/ml
C[C@H](N)C(=O)N[C@@H](Cc1c[nH]c2ccccc12)C(=O)N[C@@H](CCCNC(=N)N)C(=O)N[C@@H](Cc1ccc(-c2ccccc2)cc1)C(=O)N[C@@H](CCCNC(=N)N)C(=O)N[C@@H](C)C(N)=O [AWRBRA-NH2] (H-AWR[Bip]RA-NH2; N-terminus assumed) | 35 (≈ 39.7 µM) | 39.7 μM/ml | 35 (≈ 39.7 µM) | 39.7 μM/ml
C[C@H](NC(=O)[C@H](C)NC(=O)[C@H](Cc1ccc(-c2ccccc2)cc1)NC(=O)[C@@H](N)Cc1ccc(-c2ccccc2)cc1)C(=O)N[C@@H](CCCNC(=N)N)C(=O)N[C@@H](CCCNC(=N)N)C(N)=O [BBAARR-NH2] (H-[Bip][Bip]AARR-NH2; N-terminus assumed) | >150 | 163.4 μM/ml | 5 (≈ 5.45 µM) | 5.4 μM/ml
N=C(N)NCCC[C@H](NC(=O)[C@@H](N)Cc1c[nH]c2ccccc12)C(=O)N[C@@H](Cc1c[nH]c2ccccc12)C(=O)OCc1ccccc1 [WRW-OBzl] (H-Trp-Arg-Trp-OBn) | – | – | 5 (≈ 7.85 µM) | –
